Experimental data: patent publication US20150366839A1, “Schisantherin A for the treatment of neurodegenerative diseases” (priority 2014, published 2015)
Like-named read-outs stand apart in the source and are kept apart here.

Legend:
Akt = test: p-Akt level after MPP+, Western blot; assay type: cell-based, Human
Description: After treatment, SH-SY5Y cells were washed three times with PBS and then lysis with RIPA lysis buffer containing 1% PMSF and 1% Protease Inhibitor Cocktail and incubated for 30 min on ice. Cell lysates were centrifuged at 12,500 g for 20 min at 4° C. The supernatant was separated and the amount of protein was determined using the BCA protein assay kit (Thermo Scientific Pierce, USA). Protein samples (30 μg) were separated by SDS-PAGE (10% (w/v)) polyacrylamide gel and then transferred to a polyvinylidene difluoride (PVDF) membrane (Bio-Rad, Hercules, Calif.). Subsequently, the membrane was blocked with 5% (v/v) non-fat milk in PBST (PBS containing 0.1% Tween 20) for 1 h at room temperature. The blots were incubated overnight at 4° C. with primary antibodies. […] Quantitative assessment of protein bands was done with Gel Doc™ XRS equipped with Quantity One software.
The inventors also investigated the contribution of the PI3K/Akt pathway in the neuroprotective effects of SchiA. The inventors measured phosphorylation-Akt (p-Akt) levels after pre-treated with 60 μM SchiA for 12 h and then exposed to 2 mM MPP for another 36 h. […] To further validate whether the activation of PI3K/Akt signaling pathway, the inventors determined the blocking effect of PI3K/Akt inhibitor such as AKT inhibitor IV on the in vitro neuroprotective effect of SchiA. […]

[1] = tested on: TH-positive neurons in the SNpc; assay type: in vivo, C57BL/6 mice; conditions: for neuroprotective effect on TH-positive neurons: then MPTP
Description: Male C57BL/6 mice (20±2 g body weight, 6-8 weeks of age) were purchased from the Laboratory Animal Center of Guangdong Province and were fed six animals per cage, under a 12 h light/dark cycle with ad libitum access to food and water. Mice were handled daily and allowed 3 days to acclimate before each treatment. Six groups of mice (n=7/group, total 42 mice) were assigned for the neuroprotective study in vivo. SchiA at different concentrations (30, 100 or 300 mg/kg/day), positive control drug (Selegiline, 10 mg/kg/day) or vehicle (Tween-80/ml propylene glycol/alcohol/5% PVA, 1:1:1:17, v/v/v/v) were administered by intragastric gavage (i.g.) daily for 14 days. Then mice were injected by intraperitoneal (i.p.) with 30 mg/kg MPTP hydrochloride (Sigma-Aldrich) or physiological saline daily on days 15-19 (total 5 days). In order to allow for the full conversion of MPTP to its active metabolite MPP^+, a further 3 days of resting period followed (Levites, Weinreb et al. 2001). All animal experiments were conducted according to the ethical guidelines for animal experiment of Jinan University. The experimental protocols were approved by the Ethics Committee for Animal Experiments of Jinan University (permit number 20110810).
Three days after MPTP treatment, animals were anesthetized by i.p. administration of […] chloral hydrate (10% (w/v) dissolved in distilled water) and perfused intracardially with 100 mL PBS (0.1 mmol/L, pH 7.4) followed by 150 mL 4% paraformaldehyde (PFA) in PBS. After intracardial perfusion, brains were collected and post-fixed in 4% PFA for another 24 h at 4° C., embedded in paraffin, and cut into 6 μm coronal sections encompassing the entire SNpc. As the decrease of TH-positive neurons in response to MPTP treatment is the most prominent at medial levels of the SNpc (Hayley, Crocker et al. 2004), the inventors selected the sections from the area encompassed between −3.08 and −3.20 from bregma to perform immunohistochemisty. Immunohistochemistry of brain tissues was performed as previously described (He, Yamauchi et al. 2008; Yokoyama, Takagi et al. 2008) with minor modifications. Sections were deparaffinized in xylene and rehydrated in a graded ethanol series. […] Non-specific protein binding was blocked with 10% bovine serum in PBS (0.01 M, pH 7.4). Between each treatment, the slides were washed at least three times with deionized water for 5 minutes. […] The results were analyzed by counting the numbers of TH-positive cells at ×10 magnifications on a stereomicroscope (BX51, Olympus Corp. Japan). TH-positive cells in 6 position-matched sections of each mouse were counted manually by operator who was blinded to the drug treatment. […]

SMILES: COc1cc2c(c(OC)c1OC)-c1c(cc3c(c1OC)OCO3)C[C@H](C)[C@](C)(O)[C@H]2OC(=O)c1ccccc1 [SchiA, Schisantherin A]
- MPP+-induced down-regulation of Akt expressions (Akt; 60 μM 12 h, then 2 mM MPP+ 36 h): inhibited
- p-Akt level compared to control group, compound alone (Akt; 60 μM, without MPP+): 2.5 fold
- neuroprotective effect on TH-positive neurons ([1]; 30 mg/kg): did not exert statistical significant neuroprotective effect
- neuroprotective effect on TH-positive neurons ([1]; 100 mg/kg): did not exert statistical significant neuroprotective effect
- TH-positive neurons in SNpc ([1]; 300 mg/kg/day i.g. 14 days, then MPTP 30 mg/kg i.p. 5 days): 82±12 cells/section
